Measured values taken from patent EP1140984B1, “SELECTIVE INHIBITORS OF MMP-12” (Aventis Pharmaceuticals Inc., priority 1998, dated 2000).
Counter-ions that a name gives are not always drawn. One block for each compound: values may come before it.

What was measured:
MMP-1 = molecular target: T1, MMP-1 (Homo sapiens, UniProt P03956); test: Determination of inhibition constant (Ki) for MMP-1, fluorogenic substrate assay; assay type: biochemical; conditions: substrate Mca-Pro-Leu-Gly-Leu-Dpa-Ala-Arg-NH2, 37°C, pH 7.6, [S] = 1 µM, [MMP-1] = 0.8 nM
T1 construct: The active MMP-1 was obtained by treatment of proMMP-1 with trypsin; endogenous in cells; host or cells: human rheumatoid synovial fibroblasts stimulated with macrophage-conditioned medium
T1 sequence (P03956 100-469): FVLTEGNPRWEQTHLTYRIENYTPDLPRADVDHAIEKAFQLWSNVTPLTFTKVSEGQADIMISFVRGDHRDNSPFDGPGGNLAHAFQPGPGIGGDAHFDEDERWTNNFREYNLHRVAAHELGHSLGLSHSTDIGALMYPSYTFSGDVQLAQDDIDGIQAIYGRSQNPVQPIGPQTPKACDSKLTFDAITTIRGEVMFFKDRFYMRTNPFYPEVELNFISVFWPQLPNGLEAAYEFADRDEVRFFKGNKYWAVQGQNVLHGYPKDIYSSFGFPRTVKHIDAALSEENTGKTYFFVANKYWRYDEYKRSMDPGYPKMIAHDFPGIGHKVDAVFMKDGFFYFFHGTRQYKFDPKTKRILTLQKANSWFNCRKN
Procedure: ProMMP-1 (EC 3.4.24.7; interstitial collagenase) was purified from culture medium of human rheumatoid synovial fibroblasts stimulated with macrophage-conditioned medium according to Okada, Y. et al., J. Biol. Chem. 261, 14245-14255 (1986). The active MMP-1 was obtained by treatment of proMMP-1 with trypsin (5 µg/mL) at 37°C for 30 minutes, followed by addition of soybean trypsin inhibitor (50 µg/mL).
The activated MMP-1 is assayed using a fluorogenic substrate, Mca-Pro-Leu-Gly-Leu-Dpa-Ala-Arg-NH2, Knight, C.G. et al., FEBS Lett. 296, 263-266 (1992), at 37°C in 2.0 mL of assay buffer containing 50 mM Tris, pH 7.6, 0.2 M sodium chloride, 50 mM calcium chloride, and 0.02% Brij-35. The increase in fluorescence due to cleavage of Gly-Leu peptide bond by MMP-3 was monitored with Perkin-Elmer LS50B Fluorimeter (λex 328 nm, λem 393 nm, excitation slit 2.5, emission slit 10). Substrate and inhibitor stock solutions were made in DMF. For determination of Ki values for MMP-1 inhibitors, a series of intermediate inhibitor solutions were prepared in DMF and 1 or 2 µL of the diluted inhibitor solution was mixed with 1 µL of 2 mM substrate solution in DMF in a quartz cuvette containing 2 mL of assay buffer. The enzyme (10 µL of 0.2 µM MMP-3 dilution in assay buffer) was added at the last to start the reaction. For routine measurement of a Ki value for a reversible, competitive inhibitor, the initial rates in the presence of at least four inhibitor concentrations (two concentrations above K; and two concentrations below Ki) were measured using [S] = 1 µM (<< Km) and [MMP-1] = 0.8 nM. Under these conditions, the measured Ki, app is close to true Ki.
The Ki for a competitive inhibitor is calculated using: v0/vi = (1 + [I]/Ki,app) and Ki = Ki,app/(1 + [S]/Km), where v0 is the initial rate in the absence of inhibitor, vi is the initial rate in the presence of inhibitor at the concentration of [I], [S] is the substrate concentration, and Km is the Michaelis constant. If slow binding is observed (i.e. if the approach to the binding equilibrium is slow), the final steady-state rate rather than the initial rate is taken as vi.

MMP-2 = molecular target: T2, MMP-2 (Homo sapiens, UniProt P08253); test: Determination of inhibition constant (Ki) for MMP-2, fluorogenic substrate assay; assay type: biochemical; conditions: substrate Mca-Pro-Leu-Gly-Leu-Dpa-Ala-Arg-NH2, 37°C, pH 7.6, [S] = 1 µM, [MMP-2] = 0.4 nM
T2 construct: made in house; host or cells: Pichia pastoris (strains KM71 / SMD1168, clone 24S; vector pHIL-D2)
T2 sequence (P08253 110-660): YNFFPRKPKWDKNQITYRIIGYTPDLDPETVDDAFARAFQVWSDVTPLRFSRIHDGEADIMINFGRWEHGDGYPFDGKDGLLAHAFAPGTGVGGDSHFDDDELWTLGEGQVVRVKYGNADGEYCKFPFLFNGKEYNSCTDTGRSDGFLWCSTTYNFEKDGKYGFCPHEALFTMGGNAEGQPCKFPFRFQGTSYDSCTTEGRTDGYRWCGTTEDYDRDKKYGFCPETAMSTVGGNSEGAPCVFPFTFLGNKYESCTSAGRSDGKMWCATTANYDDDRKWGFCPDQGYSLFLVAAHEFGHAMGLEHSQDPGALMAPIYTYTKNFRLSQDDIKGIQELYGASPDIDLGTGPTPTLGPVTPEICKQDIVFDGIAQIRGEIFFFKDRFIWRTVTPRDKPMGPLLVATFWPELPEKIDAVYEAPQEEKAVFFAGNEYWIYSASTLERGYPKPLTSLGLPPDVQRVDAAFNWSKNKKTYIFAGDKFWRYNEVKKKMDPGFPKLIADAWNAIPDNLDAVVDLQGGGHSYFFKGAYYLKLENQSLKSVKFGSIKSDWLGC
Text: Recombinant MMP-2 was purified from the fermentation broth of yeast Pichia pastoris that carries the integrated MMP-2 gene into its chromosome. In brief, the full-length cDNA for MMP-2 was obtained by reverse transcription of RNA from human melanoma A375M cell line by the reverse transcriptase polymerase chain reaction (RT-PCR) using sequence specific oligonucleotides. The nucleotide sequence was confirmed by Taq cycle sequencing. The cDNA was ligated into the Pichia pastoris expression vector pHIL-D2 in such a way that the expression of pro-MMP-2 is under the control of the methanol inducible alcohol oxidase promoter. The expression construct was digested with either SalI or NsiI and used to transform the Pichia pastoris strains KM71 and SMD1168. A large-scale culture of a selected clone designated 24S was performed in a high cell density fermentor and the recombinant MMP-2 was purified from the culture supernatant by gelatin-sepharose 4B (Pharmacia). The enzyme is sufficiently pure at this stage for routine measurement of inhibition. If desired, however, the enzyme may be further purified by AcA 44 gel filtration (Spectra).
The active MMP-2 was obtained by activation of proMMP-2 at 37°C for 1 h with 4-aminophenylmercuric acetate which was then removed by a Sephadex G-50 spin column. The enzyme is assayed using a fluorogenic substrate, Mca-Pro-Leu-Gly-Leu-Dpa-Ala-Arg-NH2, at 37°C in 2.0 mL of assay buffer containing 50 mM Tris, pH 7.6, 0.2 M sodium chloride, 50 mM calcium chloride, 0.02% Brij-35, and 50 µM β-mercaptoethanol. The increase in fluorescence is monitored (λex 328 nm, λem 393 nm). Substrate and inhibitor stock solutions are made in DMF. The enzyme is added at the last to start the reaction. For routine measurement of a Ki value for a reversible, competitive inhibitor, the initial rates in the presence of at least four inhibitor concentrations (two inhibitor concentrations above Ki and two below Ki) are measured using [S] = 1 µM (<<Km) and [MMP-2] = 0.4 nM. Under these conditions, the measured Ki, app is close to true Ki.

SMILES: CC(C)[C@H](S)C(=O)N[C@@H](CCc1ccccc1)C(=O)N[C@@H](Cc1ccccc1)C(=O)O [Example 2, (S)-2-Mercapto-3-methylbutyroyl-(L)-homo-phenylalanyl-(L)-phenylalanine]
Ki (MMP-1): 5110 nM
Ki (MMP-2): 731 nM

SMILES: CC(C)C[C@H](NC(=O)C(S)C(C)C)C(=O)N[C@@H](Cc1ccccc1)C(=O)O (stereo in doubt) [Example 3, (S)-2-Mercapto-3-methylbutyroyl-(L)-leucyl-(L)-phenylalanine]
Ki (MMP-1): 518 nM
Ki (MMP-2): 784 nM

SMILES: CCCC(S)C(=O)N[C@@H](CCc1ccccc1)C(=O)N[C@@H](Cc1ccccc1)C(=O)O (stereo partly shown) [Example 1, 2-Mercapto-pentanoyl-(L)-homo-phenylalanyl-(L)-phenylalanine]
Ki (MMP-1): 5800 nM
Ki (MMP-2): 1800 nM

SMILES: CC(C)C(S)C(=O)N[C@@H](CCCCN)C(=O)N[C@@H](Cc1ccccc1)C(=O)O (stereo in doubt) [Example 5, (S)-2-Mercapto-3-methylbutyroyl-(L)-lysyl-(L)-phenylalanine trifluoroacetic acid salt]
Ki (MMP-1): 3910 nM
Ki (MMP-2): 1740 nM

Compounds with a lower Ki (MMP-1), results first:

Ki (MMP-1): 153 nM
Ki (MMP-2): 798 nM
SMILES: CSCC[C@H](NC(=O)C(S)C(C)C)C(=O)N[C@@H](Cc1ccccc1)C(=O)O (stereo in doubt) [Example 4, (S)-2-Mercapto-3-methylbutyroyl-(L)-methionyl-(L)-phenylalanine]

Ki (MMP-1): 360 nM
SMILES: CCCC(S)C(=O)N[C@@H](CCc1ccccc1)C(=O)N[C@@H](Cc1ccccc1)C(=O)NC (stereo partly drawn) [Example 6, (S)-2-Mercaptopentanoyl-(L)-homo-phenylalanyl-(L)-phenylalanine N-methyl amide]

Ki (MMP-1): 465 nM
Ki (MMP-2): 3.3 nM
SMILES: CNC(=O)[C@H](Cc1ccccc1)NC(=O)[C@H](CCc1ccccc1)NC(=O)[C@@H](S)C(C)C [Example 7, (S)-2-Mercapto-3-methylbutyroyl-(L)-homo-phenylalanyl-(L)-phenylalanine N-methyl amide]
